Legend:
depression = details: preclinical and clinical studies from the literature; cited from earlier work
[1] = system: LAPC-4 prostate tumour xenograft; details: xenograft animals; Kuiao Y et al. 2007; cited from earlier work
[2] = system: LAPC-4 prostate tumour cells; details: cell cultures; Kuiao Y et al. 2007; cited from earlier work
[3] = system: ovariectomised female Sprague-Dawley rats; experiment: novelty suppressed feeding (NSF) test; type: in vivo, rat; details: through a stomach tube, tested two hours after administration, after 24 h food deprivation, versus vehicle, p<0.05
Method: In the course of our experiment the active agent 17-alpha-estradiol of formula (I) was tested in the animal model “novelty suppressed feeding” (NSF). NFS is a conflict test during which the subject of the test has to resolve a conflict between the stimulus of urgent food intake and the anxiety induced by a novel environment [Bodnoff S R et al.: The effects of chronic antidepressant treatment in an animal model of anxiety. Psychopharmacology (Berl) 95:298-302 (1988)]; Bodnoff S R et al.: A comparison of the effects of diazepam versus several typical and atypical anti-depressant drugs in an animal model of anxiety. Psychopharmacology (Berl) 97:277-279 (1989)]. The NSF model has widespread use in studying efficiency and mechanism of antidepressant drugs and in identification of new antidepressant drugs [Santarelli L et al.: Requirement of hippocampal neurogenesis for the behavioral effects of antidepressants. Science 301:805-809 (2003); Warner-Schmidt J L et al.: VEGF is an essential mediator of the neurogenic and behavioral actions of antidepressants. […]
At the beginning of the NSF test the test animal was placed in a corner of a 75×75×50 cm dark Plexiglas cage. […] The time from the start of the test to the beginning of food intake (first biting) was measured and recorded. Every test was recorded by means of a video camera suspended over the cage. […]

SK—N—SH cells = details: Green P S et al. 1997; cited from earlier work

Row | Compound | antidepressant effect (depression) | increase of the tumour [1] | proliferation of LAPC-4 prostate tumour cells [2] | time from the start of the test to the beginning of food intake (first biting) ([3]; A50 group: 50 μg/kg (b47 prints 50 mg/kg)) | time from the start of the test to the beginning of food intake (first biting) ([3]; A150 group: 150 μg/kg (b47 prints 150 mg/kg)) | neuroprotective effect (SK—N—SH cells)
1 | C[C@]12CC[C@@H]3c4ccc(O)cc4CC[C@H]3[C@@H]1CC[C@@H]2O [17-beta-estradiol] | no antidepressant effect |  |  |  |  | 
2 | C[C@]12CC[C@@H]3c4ccc(O)cc4CC[C@H]3[C@@H]1CC[C@H]2O [17-alpha-estradiol, estra-1,3,5(10)-triene-3,17α-diol] |  | inhibits | inhibits proliferation | shorter time than the control animals | shorter time than the control animals | had a neuroprotective effect
